# Source: patent US6426343B1, “Preparation and use of a specific GABA-Aα5 receptor ligand for treatment of Alzheimer's disease” (Merck Sharp & Dohme Ltd., priority 1995, dated 2002)
# How the values were obtained:
# [1] = target: α5 subtype containing GABA-A receptors (Rattus norvegicus, UniProt P18508+P19969); assay: In vivo [3H]FG 8094 binding after pellet implantation; conditions: SC pellet, after first four swim trials, [3H]FG 8094 IV
# Method: In a second experiment the vehicle or FG pellets were implanted into rats exactly as described above. However, after the first four swim trials the animals were injected (IV) with [^3H]FG 8094 and three mins later the brains of the animals were rapidly removed.
# α5β3γ2 = target: T1, α5β3γ2 (Homo sapiens, UniProt P18507+P31644); assay: Radioligand binding, membranes of stably transfected cells
# T1 construct: expressed in transfected cells
# α5-containing receptors = assay: Occupancy of α5-containing receptors calculated by Clarke's equation; format: in vivo, mouse
# Method: If it is assumed that the percentage inhibition of in vivo [^3H]Ro 15-1788 binding is a measure of receptor occupancy then the concentration at the receptor site in brain can be calculated according to Clarke's equation (occupancy=[drug]/[drug]+Ki). Substituting the occupancy determined at α1 and α2/3-containing receptors, the concentration of FG 8094 available at BZ binding sites in […] is 7.8 nM and 13.2 nM respectively. Occupancy at α5-containing receptors cannot be measured directly because of the low abundance of the receptor, but it can be calculated using the concentration of drug and binding affinity using Clarke's equation. This predicts 95-97 % occupancy of α5-containing receptors 30 min after administration of FG 8094 (1 mg/kg).
# Male PVG hooded rats = assay: Morris watermaze cognitive studies; format: in vivo, rat
# Method: FG 8094 was synthesised by the Merck, Sharp and Dohme Neuroscience Research Centre's medicinal chemistry group and was suspended in 0.5% CMC. Vehicle or FG 8094 was administered IP 30 mins before the beginning of the first training trial.
# Male PVG hooded rats (Bantin & Kingman, Hull U.K.), weighting approximately 300 g, were housed in groups of four with free access to food and water. The animals were maintained on a 12/12 h light-dark cycle, with the lights on at 07:00 h.
# The Morris watermaze consists of a white, fibre-glass circular pool, of diameter 2 m, filled with an opaque mixture of water and white dye (E308, Morton International) maintained at 26-28° C. […] A hidden platform (13×13 cm) submerged 2 cm below the water surface was placed in the middle of the NE quadrant.
# A closed-circuit video camera, fitted with a wide-angle lens, was mounted directly above the centre of the pool and connected to an image analyser which digitised the image. The digital information was relay to an Archimedes microcomputer running ‘Watermaze’ a software package supplied by Paul Fray LTD (Cambridge, UK). The software package provided the following measures: latency to reach the platform, length of path taken, average swimming speed, the time spent and the total distance travelled in the target quadrant.
# The rats were assigned to four treatment groups (n=8): Vehicle, 0. 1, 0.3, 1.0 mg/kg FG 8094. During the acquisition phase of the experiment all the groups were given four trials per day. During this time the hidden platform was submerged in the NE quadrant of the watermaze. The rat was taken from the home cage and placed into the watermaze at one of four quasi-randomly determined locations (‘North’, ‘East’, ‘South’, or ‘West’) with its head facing, and almost touching, the pool wall. Trials began when the rat was released by the experimenter and ended when the rat climbed onto the platform and the mean escape latency was recorded. The maximum trial length was 60 s. If by that time the rat had not climbed on to the platform the trial ended automatically, the experimenter placed the rat on the platform and an escape latency of 60 s was recorded. The rat remained on the platform for 30 s and was then removed to a high-sided opaque plastic container for a further 30 s, (inter-trial interval, ITI). At the end of the ITI the rat was placed into the pool again, but at a different location and upon release the next trial began. This procedure was repeated until four trials had been completed.
# Normally, the escape latency declines over several days of training from 60 s to around 20 s. A ‘probe trial’ assess the rat's spatial memory for the location of the hidden platform. During this trial the platform was removed from the watermaze and the rat was allowed to search the pool for 60 s before it was removed from the pool. If the treatment improves the rat's memory for the location of the platform, it will spend longer searching the quadrant in which the platform had previously been hidden (NE) than a rat given vehicle treatment.
# Deficits in performance that might be due to drug-induced side-effects (such as blurred vision or motoric deficits resulting in an impaired ability to swim) were assessed using cued recall. In this procedure, the platform was also placed in the NE quadrant, but was raised 3 cm above the water level and thus visible to the rat. If the treatment has no effects on the mean escape latencies to the visible platform, then any group differences in mean escape latencies to an invisible platform can be attributed to an effect on cognitive process.
# Six days following the probe trial, during which time the rats were not expose to the watermaze or administered FG 8094, the rats were again tested with the platform submerged in the NE quadrant using the acquisition protocol.
# Reversal training was identical to the acquisition phase of the experiment with the exception that the platform was submerged in the middle of the SW quadrant.
# α3β2γ2 = target: T2, α3β2γ2 (Homo sapiens, UniProt P18507+P34903); assay: Two electrode voltage-clamp, modulation of GABA EC20 current in Xenopus oocytes; format: cell-based; conditions: 1 μM
# T2 construct: expressed in transfected cells; host or cells: Xenopus oocytes, nuclear injection of cDNAs in pCDM8
# Method: (§1) Binding studies on transfected cells containing α1β3γ2S, α2β3γ2S, and α5β3γ2S have identified compounds with α5 selectivity. These compounds were studied using electrophysiological techniques (Wafford et al, 1993) to determine their functional effects on […], α2β2γ2S, α3β2γ2S, α5β2γ2S and α6β2γ2S GABAA receptors expressed in Xenopus oocytes. Oocyte nuclei were directly injected with 10.0-20.0 nl of the relevant cDNAs (6.0 ng/μl) engineered into the expression vector pCDM8. Following incubation for 24 h, oocytes were placed in a […] and perfused with saline. By using the two electrode voltage-clamp recording method, GABA activated currents could be measured by bathing the cell in a solution containing GABA. Firstly a reproducible current response was established using a GABA concentration which gave approximately 20% of the maximal GABA response that could be elicited (EC20). […] The response could be potentiated by a BZ receptor agonist or inhibited by BZ receptor inverse agonist
# α5β2γ2 = target: T3, α5β2γ2 (Homo sapiens, UniProt P18507+P31644); assay: as above; format: cell-based; conditions: 1 μM
# T3 construct: expressed in transfected cells; host or cells: Xenopus oocytes, nuclear injection of cDNAs in pCDM8
# Method: as §1
# α2β2γ2 = target: T4, α2β2γ2 (Homo sapiens, UniProt P18507+P47869); assay: as above; format: cell-based; conditions: 1 μM
# T4 construct: expressed in transfected cells; host or cells: Xenopus oocytes, nuclear injection of cDNAs in pCDM8
# Method: as §1
# α1β2γ2 = target: T5, α1β2γ2 (Homo sapiens, UniProt P14867+P18507); assay: as above; format: cell-based; conditions: 1 μM
# T5 construct: expressed in transfected cells; host or cells: Xenopus oocytes, nuclear injection of cDNAs in pCDM8
# Method: as §1
# α1β3γ2 = α1β3γ2 (Homo sapiens, UniProt P14867+P18507); assay: biochemical
# Sequence of α1β3γ2 (P14867 28-456): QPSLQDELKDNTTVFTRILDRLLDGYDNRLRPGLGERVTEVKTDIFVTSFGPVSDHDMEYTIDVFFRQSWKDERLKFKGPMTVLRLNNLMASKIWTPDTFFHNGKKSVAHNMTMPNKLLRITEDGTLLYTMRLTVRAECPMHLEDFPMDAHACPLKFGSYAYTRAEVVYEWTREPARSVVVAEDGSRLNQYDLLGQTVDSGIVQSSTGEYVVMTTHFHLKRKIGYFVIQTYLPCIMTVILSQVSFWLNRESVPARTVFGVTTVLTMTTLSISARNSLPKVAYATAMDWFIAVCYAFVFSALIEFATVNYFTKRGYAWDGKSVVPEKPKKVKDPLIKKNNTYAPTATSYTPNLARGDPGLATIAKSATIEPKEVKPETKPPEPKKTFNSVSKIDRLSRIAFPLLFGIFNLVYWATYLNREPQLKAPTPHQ
# Sequence of α1β3γ2 (P28472 26-473 partner): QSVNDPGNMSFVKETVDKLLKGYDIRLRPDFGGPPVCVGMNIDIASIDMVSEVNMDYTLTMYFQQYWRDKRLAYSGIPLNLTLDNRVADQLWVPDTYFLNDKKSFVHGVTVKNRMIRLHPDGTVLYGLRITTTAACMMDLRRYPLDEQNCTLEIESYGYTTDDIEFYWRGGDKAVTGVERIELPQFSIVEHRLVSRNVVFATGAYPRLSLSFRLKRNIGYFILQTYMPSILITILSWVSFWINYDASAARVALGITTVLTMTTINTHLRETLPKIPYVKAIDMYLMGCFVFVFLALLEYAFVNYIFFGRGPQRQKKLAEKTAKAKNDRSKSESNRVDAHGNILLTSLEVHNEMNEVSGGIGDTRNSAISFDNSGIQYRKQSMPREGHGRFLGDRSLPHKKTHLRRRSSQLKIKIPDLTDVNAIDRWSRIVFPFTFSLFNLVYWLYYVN
# Sequence of α1β3γ2 (P18507 40-467 isoform P18507-1 limits assumed): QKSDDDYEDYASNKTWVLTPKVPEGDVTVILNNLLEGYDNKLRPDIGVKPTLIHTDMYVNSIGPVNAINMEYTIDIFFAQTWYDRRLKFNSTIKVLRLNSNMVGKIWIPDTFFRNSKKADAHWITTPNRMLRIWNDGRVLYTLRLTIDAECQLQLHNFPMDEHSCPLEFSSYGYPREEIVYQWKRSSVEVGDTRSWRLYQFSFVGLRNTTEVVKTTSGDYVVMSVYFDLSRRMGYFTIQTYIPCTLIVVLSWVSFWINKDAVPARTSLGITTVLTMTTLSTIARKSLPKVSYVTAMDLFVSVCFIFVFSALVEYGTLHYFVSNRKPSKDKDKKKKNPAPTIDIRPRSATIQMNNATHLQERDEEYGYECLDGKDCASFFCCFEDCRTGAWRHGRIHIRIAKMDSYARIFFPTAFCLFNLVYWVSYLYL
# Method: Radioligand binding studies were carried out using membranes prepared from cells stably transfected with the following subunit combinations:—α1β3γ2, α2β3γ2, α3β3γ2, α5β3γ2, α6β3γ2. Incubations were carried out using 20-100 mg of membrane protein in a total volume of 0.5 ml in 10 mM Tris-HCl, 1 mM EDTA pH 7.4 for one hour at room temperature prior to termination through Whatman GF/C filters followed by 3×3 ml washes with 5 mM Tris-HCl pH 7.5 and scintillation counting. […] Ki values were calculated according to the Cheng-Prussof equation.
# Ki values were calculated according to the Cheng-Prussof equation. Data shown are mean±SEM values for 3-6 determinations.
# T1 sequence (P31644 32-462): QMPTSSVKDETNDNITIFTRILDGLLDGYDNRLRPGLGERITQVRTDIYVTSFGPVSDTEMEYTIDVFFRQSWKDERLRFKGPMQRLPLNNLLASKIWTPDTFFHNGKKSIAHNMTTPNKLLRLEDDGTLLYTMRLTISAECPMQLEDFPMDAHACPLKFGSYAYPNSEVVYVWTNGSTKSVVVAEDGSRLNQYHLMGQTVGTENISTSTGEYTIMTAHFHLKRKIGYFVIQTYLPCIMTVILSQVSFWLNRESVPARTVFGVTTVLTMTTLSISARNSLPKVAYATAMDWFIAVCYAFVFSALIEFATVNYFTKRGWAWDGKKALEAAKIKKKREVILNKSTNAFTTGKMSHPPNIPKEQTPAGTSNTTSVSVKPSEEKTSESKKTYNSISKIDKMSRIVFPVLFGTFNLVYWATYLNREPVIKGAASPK
# T1 sequence (P28472 26-473 partner): as the sequence (P28472 26-473 partner) above
# T1 sequence (P18507 40-467 isoform P18507-1 limits assumed): as the sequence (P18507 40-467 isoform P18507-1 limits assumed) above
# Sequence of α5 subtype containing GABA-A receptors (P19969 32-464 limits assumed): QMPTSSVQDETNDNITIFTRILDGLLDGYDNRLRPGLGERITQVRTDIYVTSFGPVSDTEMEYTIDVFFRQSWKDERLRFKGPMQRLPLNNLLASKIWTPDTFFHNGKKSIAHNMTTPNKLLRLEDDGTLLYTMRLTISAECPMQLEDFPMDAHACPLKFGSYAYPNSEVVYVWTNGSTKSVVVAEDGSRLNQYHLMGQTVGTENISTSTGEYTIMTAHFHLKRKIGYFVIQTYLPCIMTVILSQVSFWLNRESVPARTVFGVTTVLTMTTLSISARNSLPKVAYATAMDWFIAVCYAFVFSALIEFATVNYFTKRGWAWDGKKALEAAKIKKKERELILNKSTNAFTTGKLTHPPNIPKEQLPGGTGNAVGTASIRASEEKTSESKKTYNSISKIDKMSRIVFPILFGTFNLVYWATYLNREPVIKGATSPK
# Sequence of α5 subtype containing GABA-A receptors (P18508 39-466): as the sequence (P18507 40-467 isoform P18507-1 limits assumed) above
# Sequence of α5 subtype containing GABA-A receptors (P63079 26-473 partner): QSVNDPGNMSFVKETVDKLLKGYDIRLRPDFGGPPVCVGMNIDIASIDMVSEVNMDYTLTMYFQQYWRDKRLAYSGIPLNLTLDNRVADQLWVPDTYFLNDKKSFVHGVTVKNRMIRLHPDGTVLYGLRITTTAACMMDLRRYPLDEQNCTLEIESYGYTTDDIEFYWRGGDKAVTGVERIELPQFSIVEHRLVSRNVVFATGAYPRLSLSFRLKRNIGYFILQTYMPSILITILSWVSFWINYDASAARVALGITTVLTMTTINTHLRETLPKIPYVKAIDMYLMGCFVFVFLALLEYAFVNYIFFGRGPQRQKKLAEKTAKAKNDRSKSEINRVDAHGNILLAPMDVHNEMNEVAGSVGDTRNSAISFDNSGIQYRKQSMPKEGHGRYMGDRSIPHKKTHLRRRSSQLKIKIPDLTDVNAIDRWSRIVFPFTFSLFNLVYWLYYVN
# T2 sequence (P34903 29-492): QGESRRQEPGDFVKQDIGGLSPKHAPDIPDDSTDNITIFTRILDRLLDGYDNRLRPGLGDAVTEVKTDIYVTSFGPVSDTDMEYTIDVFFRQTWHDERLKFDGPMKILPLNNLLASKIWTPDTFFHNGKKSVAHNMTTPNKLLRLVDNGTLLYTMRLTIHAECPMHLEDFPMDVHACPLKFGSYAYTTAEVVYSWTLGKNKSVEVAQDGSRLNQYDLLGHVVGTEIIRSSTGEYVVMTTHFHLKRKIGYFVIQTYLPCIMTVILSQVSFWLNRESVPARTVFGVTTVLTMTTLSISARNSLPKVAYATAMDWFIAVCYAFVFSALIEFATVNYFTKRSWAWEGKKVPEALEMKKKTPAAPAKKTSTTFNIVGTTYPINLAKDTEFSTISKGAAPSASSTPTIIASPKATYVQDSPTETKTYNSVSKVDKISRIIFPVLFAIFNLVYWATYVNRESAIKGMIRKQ
# T2 sequence (P47870 25-512 partner limits assumed): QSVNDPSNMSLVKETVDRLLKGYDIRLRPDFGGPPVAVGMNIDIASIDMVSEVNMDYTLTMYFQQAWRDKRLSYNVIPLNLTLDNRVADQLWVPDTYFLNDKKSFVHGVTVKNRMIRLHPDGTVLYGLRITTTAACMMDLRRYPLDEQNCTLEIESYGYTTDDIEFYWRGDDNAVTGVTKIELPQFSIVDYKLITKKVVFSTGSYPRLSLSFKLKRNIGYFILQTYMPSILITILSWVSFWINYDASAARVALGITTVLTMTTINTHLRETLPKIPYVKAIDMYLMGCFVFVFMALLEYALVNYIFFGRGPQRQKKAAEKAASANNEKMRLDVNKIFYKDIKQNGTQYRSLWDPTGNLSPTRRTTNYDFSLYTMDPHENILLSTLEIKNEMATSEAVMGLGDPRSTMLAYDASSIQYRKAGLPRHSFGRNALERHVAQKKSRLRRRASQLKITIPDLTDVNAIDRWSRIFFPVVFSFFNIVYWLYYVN
# T2 sequence (P18507 40-467 isoform P18507-1 limits assumed): as the sequence (P18507 40-467 isoform P18507-1 limits assumed) above
# T5 sequence (P14867 28-456): as the sequence (P14867 28-456) above
# T5 sequence (P47870 25-512 partner limits assumed): as the sequence (P47870 25-512 partner limits assumed) above
# T5 sequence (P18507 40-467 isoform P18507-1 limits assumed): as the sequence (P18507 40-467 isoform P18507-1 limits assumed) above
# T3 sequence (P31644 32-462): as the sequence (P31644 32-462) above
# T3 sequence (P47870 25-512 partner limits assumed): as the sequence (P47870 25-512 partner limits assumed) above
# T3 sequence (P18507 40-467 isoform P18507-1 limits assumed): as the sequence (P18507 40-467 isoform P18507-1 limits assumed) above
# T4 sequence (P47869 29-451): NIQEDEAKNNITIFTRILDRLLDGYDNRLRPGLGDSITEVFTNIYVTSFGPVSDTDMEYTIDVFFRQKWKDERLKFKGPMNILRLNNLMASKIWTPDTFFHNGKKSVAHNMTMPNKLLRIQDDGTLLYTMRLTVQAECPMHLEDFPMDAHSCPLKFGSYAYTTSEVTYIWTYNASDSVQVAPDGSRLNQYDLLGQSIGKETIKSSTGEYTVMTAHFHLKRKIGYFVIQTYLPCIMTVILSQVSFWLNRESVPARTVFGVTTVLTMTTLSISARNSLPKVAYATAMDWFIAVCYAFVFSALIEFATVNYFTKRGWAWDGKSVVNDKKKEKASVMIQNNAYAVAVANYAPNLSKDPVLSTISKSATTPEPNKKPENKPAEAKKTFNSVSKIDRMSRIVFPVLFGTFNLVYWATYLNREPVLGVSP
# T4 sequence (P47870 25-512 partner limits assumed): as the sequence (P47870 25-512 partner limits assumed) above
# T4 sequence (P18507 40-467 isoform P18507-1 limits assumed): as the sequence (P18507 40-467 isoform P18507-1 limits assumed) above
structure (smiles),measurement,setting,value
"CCOC(=O)c1ncn2c1[C@@H]1CCCN1C(=O)c1cc(OC)ccc1-2 [FG 8094, 9H-imidazo[1,5-a]pyrrolo[2,1-C][1,4]benzodiazepine-1-carboxylic acid, 11, 12, 13, 13a-tetrahydro-7-methoxy-9-oxo-, ethyl ester, (S)-(9CI)]",occupancy of α5 subtype containing GABA-A receptors in the brain,[1],approximately 85%
same,Ki,α5β3γ2,0.00045 ± 0.00015 µM
same,selectivity for α5-containing receptors over α1,α5β3γ2; over α1,107 fold
same,selectivity for α5-containing receptors over α2,α5β3γ2; over α2,60 fold
same,selectivity for α5-containing receptors over α3,α5β3γ2; over α3,53 fold
same,selectivity for α5-containing receptors over α6,α5β3γ2; over α6,184 fold
same,occupancy of α5-containing receptors,α5-containing receptors; 1.0 mg/kg,virtually all
same,predicted occupancy of α5-containing receptors,"α5-containing receptors; 30 min after 1 mg/kg, Clarke's equation",95-97%
same,"cued recall, mean escape latency to the visible platform","Male PVG hooded rats; 0.1, 0.3, 1.0 mg/kg IP",no significant effect of dose
same,"probe trial, time spent searching the platform quadrant","Male PVG hooded rats; 0.1, 0.3, 1.0 mg/kg IP",no difference in the amount of time the control and drug groups spent searching the quadrant
same,"cued recall, mean path length","Male PVG hooded rats; 0.1, 0.3, 1.0 mg/kg IP, post hoc Newman-Keuls",vehicle group traversed a significantly longer path than all the groups given FG 8094
same,"mean escape latencies, acquisition trials","Male PVG hooded rats; 0.3 and 1.0 mg/kg IP, nine day training","appear to be shorter than the vehicle control group or the 0.1 mg/kg group, the observation was not confirmed by Newman Keul post hoc tests"
same,mean swimming speed during escape to the hidden platform,"Male PVG hooded rats; acquisition trials, 0.1, 0.3, 1.0 mg/kg IP",no significant effect of dose
same,"reversal learning, mean escape latency","Male PVG hooded rats; platform moved to Southwest quadrant, first reversal day, p<0.05",mean escape latency of the vehicle group was significantly longer than all of the FG 8094 groups
same,"recall test, mean escape latency","Male PVG hooded rats; six days after probe trial, 0.1, 0.3, 1.0 mg/kg, p<0.05",mean escape latency of the vehicle group was longer than any of the FG 8094 groups
same,"functional effect on GABA EC20 current, α3β2γ2",α3β2γ2,partial receptor inverse agonist
same,"functional effect on GABA EC20 current, α5β2γ2",α5β2γ2,full receptor inverse agonist
same,"functional effect on GABA EC20 current, α2β2γ2",α2β2γ2,partial receptor inverse agonist
same,"functional effect on GABA EC20 current, α1β2γ2",α1β2γ2,no intrinsic effect
same,Ki,α1β3γ2,0.0485 ± 0.006 µM
